Laboratory results published in ChEMBL document CHEMBL1649421, “New drug-like hydroxyphenylnaphthol steroidomimetics as potent and selective 17β-hydroxysteroid dehydrogenase type 1 inhibitors for the treatment of estrogen-dependent diseases” (J Med Chem, 2011).

Key:
[1] = biological target: T1, 17-beta-hydroxysteroid dehydrogenase type 1 (Homo sapiens) (UniProt P14061); experiment: Inhibition of [3H]E1 binding to human placental 17beta-HSD1 at 1 uM after 10 mins by fluid scintillation counting
T1 sequence (whole entry): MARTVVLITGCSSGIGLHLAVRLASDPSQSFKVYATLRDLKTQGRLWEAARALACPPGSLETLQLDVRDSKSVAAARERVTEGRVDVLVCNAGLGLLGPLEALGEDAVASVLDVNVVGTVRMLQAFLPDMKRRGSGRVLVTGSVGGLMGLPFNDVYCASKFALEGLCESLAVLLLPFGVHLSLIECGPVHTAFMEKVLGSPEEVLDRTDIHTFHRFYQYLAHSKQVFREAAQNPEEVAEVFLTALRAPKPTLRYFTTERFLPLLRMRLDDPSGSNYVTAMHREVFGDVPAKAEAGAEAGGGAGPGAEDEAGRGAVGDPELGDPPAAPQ

[2] = biological target: T2, 17-beta-hydroxysteroid dehydrogenase type 2 (Homo sapiens) (UniProt P37059); experiment: Inhibition of [3H]E2 binding to human placental 17beta-HSD2 at 1 uM after 10 mins by fluid scintillation counting
T2 sequence (whole entry): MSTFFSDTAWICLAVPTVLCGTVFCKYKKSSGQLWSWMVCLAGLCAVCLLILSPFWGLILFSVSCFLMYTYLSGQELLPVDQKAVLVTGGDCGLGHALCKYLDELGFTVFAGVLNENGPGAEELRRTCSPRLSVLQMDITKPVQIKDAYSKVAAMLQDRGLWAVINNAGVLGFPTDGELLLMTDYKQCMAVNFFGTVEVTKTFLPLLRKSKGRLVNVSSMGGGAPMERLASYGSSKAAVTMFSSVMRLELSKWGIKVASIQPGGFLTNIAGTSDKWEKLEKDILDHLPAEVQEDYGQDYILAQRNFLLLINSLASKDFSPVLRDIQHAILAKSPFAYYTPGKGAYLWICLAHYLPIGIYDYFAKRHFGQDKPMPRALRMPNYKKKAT

[3] = biological target: T1, 17-beta-hydroxysteroid dehydrogenase type 1 (Homo sapiens); experiment: Inhibition of [3H]E1 binding to human recombinant 17beta-HSD1 expressed in baculovirus-infected Sf9 cells at 100 nM after 10 mins by fluid scintillation counting
[4] = biological target: T1, 17-beta-hydroxysteroid dehydrogenase type 1 (Homo sapiens); experiment: Inhibition of [3H]E1 binding to human recombinant 17beta-HSD1 expressed in baculovirus-infected Sf9 cells at 1 uM after 10 mins by fluid scintillation counting
[5] = biological target: T2, 17-beta-hydroxysteroid dehydrogenase type 2 (Homo sapiens); experiment: Inhibition of [3H]E2 binding to human recombinant 17beta-HSD2 expressed in baculovirus-infected Sf9 cells at 100 nM after 10 mins by fluid scintillation counting
[6] = biological target: T2, 17-beta-hydroxysteroid dehydrogenase type 2 (Homo sapiens); experiment: Inhibition of [3H]E2 binding to human recombinant 17beta-HSD2 expressed in baculovirus-infected Sf9 cells at 1 uM after 10 mins by fluid scintillation counting
[7] = biological target: T3, 17-beta-hydroxysteroid dehydrogenase type 1 (Homo sapiens, UniProt P14061); experiment: Displacement of [3H]E1 from human placental 17beta-HSD1 after 10 mins by fluid scintillation counting
T3 sequence (P14061 whole entry): T1 sequence (whole entry)

[8] = biological target: T4, Estrogen receptor (Homo sapiens) (UniProt P03372); experiment: Displacement of [3H]E2 from human recombinant ERalpha by liquid scintillation counting relative to estradiol
T4 sequence (whole entry): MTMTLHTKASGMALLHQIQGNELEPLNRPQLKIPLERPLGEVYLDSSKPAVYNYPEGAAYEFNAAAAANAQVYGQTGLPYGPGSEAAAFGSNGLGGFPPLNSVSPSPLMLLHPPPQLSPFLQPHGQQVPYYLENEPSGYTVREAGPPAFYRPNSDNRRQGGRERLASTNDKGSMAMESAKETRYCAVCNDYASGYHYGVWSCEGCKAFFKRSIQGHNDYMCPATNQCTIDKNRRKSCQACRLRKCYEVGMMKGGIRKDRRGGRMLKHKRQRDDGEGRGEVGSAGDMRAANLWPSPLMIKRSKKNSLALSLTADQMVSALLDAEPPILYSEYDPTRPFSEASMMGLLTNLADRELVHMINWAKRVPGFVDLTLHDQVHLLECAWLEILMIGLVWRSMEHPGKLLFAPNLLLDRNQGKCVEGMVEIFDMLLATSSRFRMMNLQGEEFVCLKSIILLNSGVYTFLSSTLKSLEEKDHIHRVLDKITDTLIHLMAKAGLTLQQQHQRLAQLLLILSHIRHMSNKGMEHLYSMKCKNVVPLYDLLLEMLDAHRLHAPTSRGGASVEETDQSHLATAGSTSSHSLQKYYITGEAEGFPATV

[9] = biological target: Estrogen receptor beta (Homo sapiens) (UniProt Q92731); experiment: Displacement of [3H]E2 from human recombinant ERbeta by liquid scintillation counting relative to estradiol
Homo sapiens = organism: Homo sapiens; experiment: Selectivity ratio of IC50 for human placental 17beta-HSD2 to IC50 for human placental 17beta-HSD1
[10] = biological target: T3, 17-beta-hydroxysteroid dehydrogenase type 1; experiment: Displacement of [3H]E1 from 17beta-HSD1 in human T47D cells after 10 mins by fluid scintillation counting; type: cell-based
Cytochrome P450 1A2 = biological target: T5, Cytochrome P450 1A2 (Homo sapiens, UniProt P05177); experiment: Inhibition of human CYP1A2; type: ADME
T5 sequence (P05177 whole entry): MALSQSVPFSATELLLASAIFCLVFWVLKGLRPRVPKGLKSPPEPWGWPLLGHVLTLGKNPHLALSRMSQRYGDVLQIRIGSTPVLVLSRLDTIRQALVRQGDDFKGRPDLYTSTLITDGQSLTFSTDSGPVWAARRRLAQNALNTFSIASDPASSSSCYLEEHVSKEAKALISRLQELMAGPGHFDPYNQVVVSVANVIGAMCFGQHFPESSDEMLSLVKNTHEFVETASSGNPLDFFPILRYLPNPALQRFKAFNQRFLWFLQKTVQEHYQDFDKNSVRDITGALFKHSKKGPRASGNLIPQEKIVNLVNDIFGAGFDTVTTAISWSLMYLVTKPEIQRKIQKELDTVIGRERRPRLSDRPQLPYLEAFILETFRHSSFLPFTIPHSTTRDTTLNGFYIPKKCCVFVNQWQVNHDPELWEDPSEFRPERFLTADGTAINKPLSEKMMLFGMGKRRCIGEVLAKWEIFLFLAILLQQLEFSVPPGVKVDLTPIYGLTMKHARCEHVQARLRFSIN

Cytochrome P450 2B6 = biological target: T6, Cytochrome P450 2B6 (Homo sapiens, UniProt P20813); experiment: Inhibition of human CYP2B6; type: ADME
T6 sequence (P20813 whole entry): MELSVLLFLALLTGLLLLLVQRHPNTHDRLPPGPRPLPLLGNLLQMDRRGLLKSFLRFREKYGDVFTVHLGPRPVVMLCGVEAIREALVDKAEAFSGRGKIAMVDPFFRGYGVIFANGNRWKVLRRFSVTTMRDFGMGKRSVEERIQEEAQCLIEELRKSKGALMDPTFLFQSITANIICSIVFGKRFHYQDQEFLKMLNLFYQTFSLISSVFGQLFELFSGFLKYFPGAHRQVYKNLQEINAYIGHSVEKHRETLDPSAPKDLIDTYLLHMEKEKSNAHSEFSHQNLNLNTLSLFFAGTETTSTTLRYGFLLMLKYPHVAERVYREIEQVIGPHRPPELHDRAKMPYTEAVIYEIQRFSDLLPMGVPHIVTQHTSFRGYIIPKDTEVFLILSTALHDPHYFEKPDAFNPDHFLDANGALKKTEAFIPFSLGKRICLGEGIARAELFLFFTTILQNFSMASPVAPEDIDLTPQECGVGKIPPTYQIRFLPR

Cytochrome P450 2C9 = Cytochrome P450 2C9 (Homo sapiens, UniProt P11712); experiment: Inhibition of human CYP2C9; type: ADME
Cytochrome P450 2C19 = Cytochrome P450 2C19 (Homo sapiens, UniProt P33261); experiment: Inhibition of human CYP2C19; type: ADME
Cytochrome P450 2D6 = Cytochrome P450 2D6 (Homo sapiens, UniProt P10635); experiment: Inhibition of human CYP2D6; type: ADME
Cytochrome P450 3A4 = Cytochrome P450 3A4 (Homo sapiens, UniProt P08684); experiment: Inhibition of human CYP3A4; type: ADME
[11] = biological target: T7, 17-beta-hydroxysteroid dehydrogenase type 2 (Homo sapiens, UniProt P37059); experiment: Displacement of [3H]E2 from human placental 17beta-HSD2 after 10 mins by fluid scintillation counting
T7 sequence (P37059 whole entry): T2 sequence (whole entry)

[12] = Half life in Sprague-Dawley rat liver microsomes by LC-MS/MS analysis; type: ADME, Microsome
[13] = Apparent permeability across human Caco2 cells after 180 mins by LC-MS/MS analysis; type: ADME, cell-based; details: Caco-2
[14] = Cmax in Wistar rat at 50 mg/kg, po administered as single dose by LC-MS/MS analysis; type: ADME, organism-based; set-up: dose 50 mg/kg, route oral; details: in vivo
Liver microsomes = experiment: Intrinsic clearance in Sprague-Dawley rat liver microsomes after 60 mins by LC-MS/MS analysis; type: ADME, Microsome; details: 1 h
Rattus norvegicus [15] = experiment: Clast in Wistar rat at 50 mg/kg, po administered as single dose by LC-MS/MS analysis; type: ADME, organism-based; set-up: dose 50 mg/kg, route oral; details: in vivo
[16] = Tmax in Wistar rat at 50 mg/kg, po administered as single dose by LC-MS/MS analysis; type: ADME, organism-based; set-up: dose 50 mg/kg, route oral; details: in vivo
Rattus norvegicus [17] = experiment: Tlast in Wistar rat at 50 mg/kg, po administered as single dose by LC-MS/MS analysis; type: ADME, organism-based; set-up: dose 50 mg/kg, route oral; details: in vivo
[18] = Half life in Wistar rat at 50 mg/kg, po administered as single dose by LC-MS/MS analysis; type: ADME, organism-based; set-up: dose 50 mg/kg, route oral; details: in vivo
[19] = AUC (0 to t) in Wistar rat at 50 mg/kg, po administered as single dose by LC-MS/MS analysis; type: ADME, organism-based; set-up: dose 50 mg/kg, route oral; details: plasma
[20] = biological target: T1, 17-beta-hydroxysteroid dehydrogenase type 1 (Homo sapiens); experiment: Inhibition of [3H]E1 binding to human placental 17beta-HSD1 at 100 nM after 10 mins by fluid scintillation counting

Chain of Cytochrome P450 2D6 (P10635 whole entry): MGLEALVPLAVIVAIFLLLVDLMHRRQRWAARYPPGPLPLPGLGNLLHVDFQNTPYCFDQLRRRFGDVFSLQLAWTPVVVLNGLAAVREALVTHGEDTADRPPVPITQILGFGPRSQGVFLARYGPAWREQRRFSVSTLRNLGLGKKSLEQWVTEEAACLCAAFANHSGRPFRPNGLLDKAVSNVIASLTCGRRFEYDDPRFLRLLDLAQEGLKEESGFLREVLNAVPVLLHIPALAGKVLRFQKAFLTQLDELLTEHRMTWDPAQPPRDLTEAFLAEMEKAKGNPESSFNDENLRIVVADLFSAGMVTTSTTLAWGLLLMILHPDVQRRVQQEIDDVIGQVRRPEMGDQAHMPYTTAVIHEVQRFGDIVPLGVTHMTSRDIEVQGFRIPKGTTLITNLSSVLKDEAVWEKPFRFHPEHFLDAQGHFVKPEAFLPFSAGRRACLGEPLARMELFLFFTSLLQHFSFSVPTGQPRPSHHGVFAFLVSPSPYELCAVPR
Chain of Cytochrome P450 2C9 (P11712 whole entry): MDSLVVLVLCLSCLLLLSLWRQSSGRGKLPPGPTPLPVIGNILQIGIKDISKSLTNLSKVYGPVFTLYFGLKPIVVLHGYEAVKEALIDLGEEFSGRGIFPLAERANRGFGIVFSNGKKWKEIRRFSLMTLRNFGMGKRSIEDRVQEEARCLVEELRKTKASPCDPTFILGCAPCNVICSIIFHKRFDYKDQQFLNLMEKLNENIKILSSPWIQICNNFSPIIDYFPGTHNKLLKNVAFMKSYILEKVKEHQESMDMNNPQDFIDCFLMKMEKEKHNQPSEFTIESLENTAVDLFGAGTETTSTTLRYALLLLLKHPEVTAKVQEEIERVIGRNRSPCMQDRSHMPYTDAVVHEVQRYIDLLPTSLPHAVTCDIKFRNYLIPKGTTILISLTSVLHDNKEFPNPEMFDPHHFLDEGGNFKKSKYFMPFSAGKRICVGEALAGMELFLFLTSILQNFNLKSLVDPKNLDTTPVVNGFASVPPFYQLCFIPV
Chain of Cytochrome P450 3A4 (P08684 whole entry): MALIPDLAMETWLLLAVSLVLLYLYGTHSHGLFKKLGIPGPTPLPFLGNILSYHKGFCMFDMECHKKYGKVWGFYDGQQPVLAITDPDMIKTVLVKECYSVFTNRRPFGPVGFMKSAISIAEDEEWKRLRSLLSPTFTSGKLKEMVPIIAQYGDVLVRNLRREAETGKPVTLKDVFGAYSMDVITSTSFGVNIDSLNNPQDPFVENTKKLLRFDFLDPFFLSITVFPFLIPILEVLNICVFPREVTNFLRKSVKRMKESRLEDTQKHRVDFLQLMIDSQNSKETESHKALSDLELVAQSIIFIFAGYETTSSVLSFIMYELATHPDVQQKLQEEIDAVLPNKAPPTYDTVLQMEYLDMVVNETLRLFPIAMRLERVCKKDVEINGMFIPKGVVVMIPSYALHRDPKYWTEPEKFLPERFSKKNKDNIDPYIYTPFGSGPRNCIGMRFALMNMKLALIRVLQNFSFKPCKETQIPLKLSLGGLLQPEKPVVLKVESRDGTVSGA
Chain of Cytochrome P450 2C19 (P33261 whole entry): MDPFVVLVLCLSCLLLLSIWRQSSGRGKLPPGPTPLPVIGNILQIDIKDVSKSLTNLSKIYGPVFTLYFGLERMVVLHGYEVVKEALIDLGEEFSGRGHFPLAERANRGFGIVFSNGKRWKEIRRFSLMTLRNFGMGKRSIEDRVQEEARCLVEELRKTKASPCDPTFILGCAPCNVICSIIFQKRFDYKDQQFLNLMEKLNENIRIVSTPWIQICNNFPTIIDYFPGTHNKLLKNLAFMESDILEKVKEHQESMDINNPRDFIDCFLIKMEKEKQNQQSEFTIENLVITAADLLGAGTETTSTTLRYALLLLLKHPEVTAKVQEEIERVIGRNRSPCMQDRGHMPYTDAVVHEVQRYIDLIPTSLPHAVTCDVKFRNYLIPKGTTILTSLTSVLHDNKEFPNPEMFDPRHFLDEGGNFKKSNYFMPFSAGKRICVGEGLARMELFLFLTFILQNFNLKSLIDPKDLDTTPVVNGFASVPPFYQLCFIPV
Chain of Estrogen receptor beta (Homo sapiens) (Q92731 whole entry): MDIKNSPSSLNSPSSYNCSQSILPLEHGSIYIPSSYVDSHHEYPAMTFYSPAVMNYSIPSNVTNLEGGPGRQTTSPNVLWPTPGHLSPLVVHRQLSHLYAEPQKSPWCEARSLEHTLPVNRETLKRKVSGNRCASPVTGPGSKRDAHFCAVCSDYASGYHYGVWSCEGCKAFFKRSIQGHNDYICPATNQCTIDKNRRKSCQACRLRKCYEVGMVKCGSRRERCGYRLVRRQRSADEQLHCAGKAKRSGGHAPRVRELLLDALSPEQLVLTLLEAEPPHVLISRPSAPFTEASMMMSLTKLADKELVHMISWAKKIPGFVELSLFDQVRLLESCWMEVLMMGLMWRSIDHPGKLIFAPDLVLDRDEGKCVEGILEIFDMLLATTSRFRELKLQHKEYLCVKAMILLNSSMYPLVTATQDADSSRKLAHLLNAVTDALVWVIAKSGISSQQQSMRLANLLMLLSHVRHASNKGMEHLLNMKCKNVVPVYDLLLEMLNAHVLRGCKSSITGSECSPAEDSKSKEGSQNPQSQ

Oc1ccccc1-c1ccc2c(-c3cncnc3)c(O)ccc2c1
inhibition [1]: < 10% | inhibition [2]: < 10%

Oc1cccc(-c2ccc3c(-c4ccncc4)c(O)ccc3c2)c1
inhibition [3]: 74% | inhibition [4]: 86% | inhibition [5]: 12% | inhibition [6]: 49% | IC50 [7]: 64 nM | RBA [8]: 0.01% | RBA [9]: < 0.01%

Oc1cccc(-c2ccc3c(-c4ccc(N5CCOCC5)cc4)c(O)ccc3c2)c1
inhibition [3]: 32% | inhibition [4]: 65% | inhibition [5]: 12% | inhibition [6]: 32%

Oc1cccc(-c2ccc3c(-c4cccc(O)c4)c(O)ccc3c2)c1
inhibition [3]: 83% | inhibition [4]: 93% | inhibition [5]: < 10% | inhibition [6]: 40% | IC50 [7]: 36 nM | Ratio IC50 (Homo sapiens): 27 | IC50 [10]: 115 nM | RBA [8]: 0.01% | RBA [9]: 0.01% | IC50 (Cytochrome P450 1A2): 19000 nM | IC50 (Cytochrome P450 2B6): 11800 nM | IC50 (Cytochrome P450 2C9): 270 nM | IC50 (Cytochrome P450 2C19): 6030 nM | IC50 (Cytochrome P450 2D6): 24800 nM | IC50 (Cytochrome P450 3A4): 40 nM

COc1ccc(-c2c(O)ccc3cc(-c4cccc(O)c4)ccc23)cn1
inhibition [3]: 86% | inhibition [4]: 89% | inhibition [5]: 24% | inhibition [6]: 67% | IC50 [11]: 530 nM | RBA [8]: 0.01% | RBA [9]: < 0.01% | half-life [12]: 4.82 h | Papp at 3 h [13]: 8 ×10⁻⁶ cm/s

Oc1cccc(-c2ccc3c(-c4ccoc4)c(O)ccc3c2)c1
inhibition [3]: 83% | inhibition [4]: 89% | inhibition [5]: 61% | inhibition [6]: 92% | IC50 [7]: 70 nM | Ratio IC50 (Homo sapiens): 8 | RBA [8]: 0.01% | RBA [9]: 0.01%

Nc1cccc(-c2c(O)ccc3cc(-c4cccc(O)c4)ccc23)c1
Cmax [14]: 44 ng/mL | inhibition [3]: 74% | inhibition [4]: 87% | inhibition [5]: < 10% | inhibition [6]: 39% | IC50 [7]: 53 nM | RBA [8]: 0.01% | RBA [9]: < 0.01% | half-life [12]: 0.833 h | CL (Liver microsomes): 93 µL/min | Papp at 3 h [13]: 16 ×10⁻⁶ cm/s | IC50 (Cytochrome P450 1A2): 10500 nM | IC50 (Cytochrome P450 2B6): 10400 nM | IC50 (Cytochrome P450 2C9): 1250 nM | IC50 (Cytochrome P450 2C19): 680 nM | IC50 (Cytochrome P450 2D6): 40000 nM | IC50 (Cytochrome P450 3A4): 1070 nM | Cz (Rattus norvegicus [15]): 14 ng/mL | Tmax [16]: 2 h | tz (Rattus norvegicus [17]): 8 h | half-life [18]: 1.6 h | AUC(0-t) [19]: 337 ng·h/mL

Oc1cccc(-c2ccc3c(-c4ccc5[nH]ccc5c4)c(O)ccc3c2)c1
inhibition [20]: 50% | inhibition [1]: 87% | inhibition [2]: 19%

Oc1cccc(-c2ccc3c(-c4ccccc4)c(O)ccc3c2)c1
inhibition [5]: 22% | inhibition [6]: 77% | Ratio IC50 (Homo sapiens): 27 | IC50 [10]: 281 nM | RBA [8]: 0.01% | RBA [9]: 0.01% | Papp at 3 h [13]: 9.3 ×10⁻⁶ cm/s | IC50 (Cytochrome P450 1A2): 7160 nM | IC50 (Cytochrome P450 2B6): 7960 nM | IC50 (Cytochrome P450 2C9): 1640 nM | IC50 (Cytochrome P450 2C19): 1410 nM | IC50 (Cytochrome P450 2D6): 15500 nM | IC50 (Cytochrome P450 3A4): 2770 nM

Oc1cccc(-c2ccc3c(-c4cncnc4)c(O)ccc3c2)c1
inhibition [20]: < 10% | inhibition [1]: 41% | inhibition [2]: 85%
